Laboratory results published in patent US6403149B1, “Fluorinated ketones as lubricant deposition solvents for magnetic media applications” (3M Innovative Properties Company, priority 2001, dated 2002).
Like-named read-outs stand apart in the source and are kept apart here.

Columns and labels:
[1] = Solubility/miscibility of perfluoropolyether lubricants (Z-DOL, AM 3001) and phosphazene additive X-1P in fluorinated solvents
Method: The term “miscible” denotes that the lubricant and fluorinated solvent were miscible in all proportions, forming an essentially clear solution. Any number entry denotes solubility in the fluorinated solvent as percent by weight. The term “NT” denotes that the compound was not tested for solubility with the solvent.
Z-DOL was evaluated for solubility in the following fluorinated ketones: […]

[2] = Cardiac sensitization no-effect level; conditions: in vivo, inhaled
Text: (§1) Additionally, the fluorinated ketones have low toxicity.

[3] = Solubility of impurities (dioctyl phthalate, silicone oils) in fluorinated solvents; assay type: physicochemical
Method: In Comparative Examples C6-C10, the same “impurities” were evaluated for solubility in C6F14 (a perfluorocarbon), C4F9OCH3 (a hydrofluoroether), CF3CFHCFHCF2CF3 (a hydrofluorocarbon), C3F5HCl2 (a hydrochlorofluorocarbon), and […] (a chlorofluorocarbon), all fluorinated solvents outside the scope of this invention.
The term “NT” denotes that the impurity was not tested in the fluorinated solvent.

[4] = Short-term inhalation tests with rats (acute toxicity); assay type: in vivo
Text: as §1

[5] = solute FOMBLIN AM 3001 perfluoropolyether lubricant, miscible = miscible in all proportions
[6] = solute X-1P cyclic phosphazene additive, miscible = miscible in all proportions
[7] = solute Z-DOL perfluoropolyether lubricant, miscible = miscible in all proportions, essentially clear solution

Row | Compound | Solubility of AM 3001 in the solvent [1, 5] | Solubility of X-1P in the solvent [1, 6] | Solubility of Z-DOL in the solvent [1, 7] | other results
1 | O=C(C(F)(C(F)(F)F)C(F)(F)F)C(F)(C(F)(F)F)C(F)(F)F [(CF3)2CFC(O)CF(CF3)2, 1,1,1,2,4,5,5,5,6,6,6-octafluoro-2,4-bis(trifluoromethyl)pentan-3-one] | miscible | 0.03 percent by weight | miscible | –
2 | COC(F)(F)C(F)(F)C(F)(F)C(F)(F)F [C4F9OCH3, perfluorobutyl methyl ether] | miscible | miscible | miscible | –
3 | FC(F)(F)C(F)(F)C(F)(F)C(F)(F)C(F)(F)C(F)(F)F [C6F14, perfluorohexane] | miscible | – | miscible | –
4 | O=C(C(F)(F)C(F)(F)F)C(F)(C(F)(F)F)C(F)(F)F [CF3CF2C(O)CF(CF3)2, 1,1,1,2,4,4,5,5,5-nonafluoro-2-trifluoromethyl-pentan-3-one] | – | – | – | "no-effect" level for cardiac sensitization [2]: > 150,000 ppm; Solubility of AM 3001 in the solvent [1]: miscible; Solubility of X-1P in the solvent [1]: 0.03 percent by weight; Solubility of Z-DOL in the solvent [1]: miscible; Solubility of DOP in the solvent [3]: 0.024; Solubility of Silicone 100 cst in the solvent [3]: <0.01; Solubility of Silicone 1000 cst in the solvent [3]: <0.01; Solubility of Silicone 10000 cst in the solvent [3]: <0.01; Acute toxicity [4]: low acute toxicity
5 | FC(C(F)C(F)(F)C(F)(F)F)C(F)(F)F (stereo not shown) [CF3CFHCFHCF2CF3, 1,1,1,2,3,4,4,5,5,5-decafluoropentane] | miscible | miscible | miscible | –
6 | O=C(C(F)(F)C(F)(F)C(F)(F)F)C(F)(C(F)(F)F)C(F)(F)F [n-C3F7C(O)CF(CF3)2, 1,1,1,2,4,4,5,5,6,6,6-undecafluoro-2-trifluoromethylhexan-3-one] | miscible | – | miscible | –
7 | dichloropentafluoropropane [C3F5HCl2] | miscible | miscible | miscible | –
